From article PMC8012336, “An automated and high-throughput-screening compatible pluripotent stem cell-based test platform for developmental and reproductive toxicity assessment of small molecule compounds” (Cell Biology and Toxicology, 2020)
≈ marks a conversion by molar mass, not a printed value. Read-outs that look alike come from different tables or passages of the source.

Columns and labels:
[1] = Manual MTT cell viability assay, 7 d; format: cell-based, mouse; details: mouse, manual, in brackets the two individual experiments
Procedure: (§1) The MTT cell viability assay was performed as described (Seiler and Spielmann [2011]) with modifications. In brief, 96-well cell culture plates were coated with gelatin (0.1%) before plating mESC-D3. All peripheral wells of the assay plate were filled with 200 μl growth media (“blank”). Afterward, NIH/3T3 and mESC-D3 were plated in growth media (1 × 10^4 cells/ml, 50 μl/well). […] Vehicle (PBS) and positive control (5-fluorouracil) wells were also included on all assay plates. Three and 5 days after seeding the cell supernatant was replaced by freshly prepared compound solution (200 μl/well). Seven days after seeding the cell viability was detected. Therefore, the cell supernatant was aspirated from all wells, MTT solution (5 mg/ml) was added (20 μl/well) and the assay plate was incubated for 2 h at 37 °C and 5% CO2 in a humidified atmosphere. Afterward, all liquid was removed from the wells and MTT desorb solution (0.7% SDS in 2-propanol (Carl Roth, Cat. No. 9866.5), pre-warmed to 37 °C) was dispensed (130 μl/well). The assay plate was placed on a shaker for 15 min. Remaining precipitates were suspended by pipetting up and down with a multichannel pipette before measuring the absorption at 570 nm on a microtiter plate reader using 630 nm as a reference wavelength.
(§2) Toxicity data from the MTT and CellTiter-Glo Assay was normalized against the vehicle control (100% viability) and plotted against the logarithmic compound concentration.

[2] = Automated CellTiter-Glo luminescent cell viability (cytotoxicity) assay, 5 d; details: mouse
Procedure: (§3) The CellTiter-Glo® luminescent cell viability assay (Promega, Cat. No. G7573) was automated in 96-well format on the lab automation platform Fluent® (Tecan, Männedorf, Switzerland). The procedure allowed the testing of six compounds in mESC-D3 and NIH/3T3 cells in parallel. On the first day, PBS was dispensed into the peripheral wells of the assay plates (200 μl/well) using the Multiple Channel Arm (MCA). Mouse ES-D3 and NIH/3T3 cells were plated (50 μl/well, 1 × 10^4 cells/ml)) using the Flexible Channel Arm (FCA) and transported into the Cytomat™ 10 (Thermo Fisher Scientific) for incubation using the Robotic Gripper Arm (RGA). A 7-point dilution series of the test compounds and control solutions were prepared in PBS or DMSO (Carl Roth, Cat. No. HN47.1) under the laminar flow, transferred to a 96-well 0.5-ml Masterblock plate (Greiner bio-one, Cat. No. 786261) and placed on the worktable. On the Fluent the compounds were transferred to a 96-well 2-ml Masterblock plate (Greiner bio-one, Cat. No. 780271) and further diluted in growth media using the FCA. Two hours after cell plating compounds and controls were transferred to the assay plate with the FCA (150 μl/well) and transported back in the Cytomat 10. On day three of the assay, the media was exchanged using the MCA: old media was aspirated and dispensed into a 96-deep-well plate (“waste”), freshly prepared compound, and control solution was dispensed into the assay plate. After two more days of incubation, the cell viability was determined using the CellTiter-Glo assay. The assay plates were transported from the Cytomat 10 to the Carousel (Tecan) to adapt to room temperature. After 25 min the cell supernatant was removed partially (80 μl/well) and CellTiter-Glo reagent was dispensed (50 μl/well). The assay plate was placed on a shaker for 1 min and afterward incubated 25 min in the Carousel before the Luminescence signal was detected on the Infinite M1000 Pro plate reader (Tecan).
as §2

[3] = tested on: HDFf (human dermal fibroblasts of fetal origin); assay: Manual human EST cytotoxicity assay, MTT, 5 d
Procedure: (§4) The cytotoxicity assessment with a reduced assay time of 5 days combined with either NADH- or ATP-based detection was also carried out with human induced pluripotent stem cells (hiPSCs). […] Furthermore, differences in the cytotoxicity effects between the hiPSCs and HDFfs were more pronounced than in the mouse cells. Similar to the cytotoxicity-based assay the overall variance in the data is reduced when viability data was obtained by an ATP-based read-out.
as §1
(§5) Figure S1: Step-wise evolution of the cytotoxicity assay towards the use of human cell lines. Related to Figure 2. Cytotoxicity assays were carried out with two compound sets on hiPSC line ZIPi013-E and HDFf, from which they were derived. […] A) 5 day MTT assay and manual handling. B) As in A), but using CellTiter-Glo® viability assay. All points in the graph represent the mean of 6 individual data points, including the standard error.

hiPSC line ZIPi013-E [4] = assay: Manual human EST cytotoxicity assay, MTT, 5 d
Procedure: as §4, §1, §5

[5] = tested on: HDFf (human dermal fibroblasts of fetal origin); assay: Manual human EST cytotoxicity assay, CellTiter-Glo, 5 d
Procedure: as §4
(§6) 96-well cell culture plates were coated with gelatin (0.1%) before plating mESC-D3. All peripheral wells of the assay plate were filled with 200 μl growth media. In order to assess compound toxicity on mESC-D3 and NIH/3T3 cells, cell suspensions of NIH/3T3, and mESC-D3 were prepared in growth media (1 × 10^4 cells/ml) and were transferred to all remaining wells (50 μl/well). A 7-point dilution series in growth media was prepared for each test compound and was transferred to the assay plate 2 h after cell seeding (150 μl/well). Afterward, the cells were incubated in a humidified atmosphere at 37 °C and 5% CO2. Three and 5 days after seeding the cell supernatant was replaced by freshly prepared compound solution (200 μl/well). Seven days after seeding the assay plate was taken out of the incubator and located at room temperature for 10 min, before cell supernatant was aspirated (80 μl/well) and CellTiter-Glo® reagent was dispensed (50 μl/well). The assay plate was placed on a shaker for 1 min and after another 10 min incubation at room temperature in the dark the luminescence signal was detected on a plate reader.
as §5

hiPSC line ZIPi013-E [6] = assay: as above
Procedure: as §4, §6, §5

NIH/3T3 [7] = assay: Manual MTT cell viability assay, 7 d; format: cell-based, mouse
Procedure: as §1, §2

mESC-D3 [8] = assay: Manual MTT cell viability assay, 7 d; format: cell-based, mouse
Procedure: as §1, §2

NIH/3T3 [9] = assay: Automated CellTiter-Glo luminescent cell viability (cytotoxicity) assay, 5 d
Procedure: as §3, §2

mESC-D3 [10] = assay: as above
Procedure: as §3, §2

SMILES | IC50 at 7 d ([1]; NIH/3T3 cells, read-out: Cytotoxicity assay MTT, 7 d IC50 NIH/3T3) | IC50 at 7 d ([1]; mESC-D3 cells, read-out: Cytotoxicity assay MTT, 7 d IC50 mESC-D3) | IC50 at 5 d ([2]; NIH/3T3 cells) | IC50 at 5 d ([2]; mESC-D3 cells (mouse embryonic stem cells)) | Cytotoxicity assay MTT, 5 d IC50 HDFf [3] | Cytotoxicity assay MTT, 5 d IC50 ZIPi013-E (hiPSC line ZIPi013-E [4]) | Cytotoxicity assay CTG, 5 d IC50 HDFf [5] | Cytotoxicity assay CTG, 5 d IC50 ZIPi013-E (hiPSC line ZIPi013-E [6]) | Cytotoxicity assay MTT, 7 d IC50 NIH/3T3 (NIH/3T3 [7]) | Cytotoxicity assay MTT, 7 d IC50 mESC-D3 (mESC-D3 [8]) | Cytotoxicity assay CTG, 5 d IC50 NIH/3T3 (NIH/3T3 [9]) | Cytotoxicity assay CTG, 5 d IC50 mESC-D3 (mESC-D3 [10])
O=C1NS(=O)(=O)c2ccccc21 [Saccharin, saccharin] | > 1000 µg/mL | > 1000 µg/mL | > 1000 µg/mL | 393 µg/mL (≈ 2.15 mM) | – | – | – | – | – | – | – | –
NC(=O)NO [Hydroxyurea, hydroxyurea] | – | – | – | – | 4.005 µg/mL | 0.3326 µg/mL | 30.15 µg/mL | 0.8652 µg/mL | 2.17 (1.81; 2.53) µg/ml | 2.11 (2.08; 2.15) µg/ml | 4.01 (3.97; 4.06) μg/ml | 2.28 (1.69; 2.87) μg/ml
